According to PMC5054363 (Scientific Reports, 2016):
*1 amine or outer side, *2 acyl side, *3 side chain or, on linkers, in order; H or OH if unused. Where a SMILES comes first, the peptide text is derived from it. Bridges are numbered along the chain shown (N, C = ends). [ ]: non-standard residue; d: D form. The star is where a group is joined. X1 = CC[C@H](C)[C@@H](N[*:1])[C@@H](O)CC(=O)O[C@H](C(=O)[C@H](C)C(=O)[*:2])C(C)C; NMeY = CN[C@@H](Cc1ccc(O)cc1)C(=O)O; dNMeL = CN[C@H](CC(C)C)C(=O)O; Pyruvoyl = CC(=O)C(=O)*

What was measured:
[1] = system: HeLa cervical cancer cells; set-up: method as in PMID 15365569; settings: HeLa parental cells, 72 h, Fig. 1A; reported as previously described; cited from earlier work
[2] = system: HeLa cells ectopically overexpressing eEF1A2-GFP; assay: Antiproliferative activity in HeLa overexpressing eEF1A2-GFP; format: cell-based, human; settings: HeLa overexpressing eEF1A2-GFP (Supplementary Figure 1)
Experimental: (§1) For transfection and selection of cell clones, HeLa and HeLa-APL-R cells were seeded in 24 well plates at 40% confluence and allowed to stand for 24 hours at 37 °C and 5% CO2. Before transfection, the culture medium was changed to Opti-MEM (Life Technologies, Carlsbad, CA, USA). Plasmids encoding eEF1A2-GFP were incubated with Lipofectamine (Life Technologies, Carlsbad, CA, USA) under the recommendations of the manufacturer and added to the cell medium. After 24 h incubation at 37 °C and 5% CO2, the culture medium was replaced by the standard DMEM supplemented with 2 mg/ml of G-418 for the selection of clones expressing the exogenous gene. Clones were further selected following the expression of the GFP-fused protein through fluorescence microscopy.
LEGENDS TO SUPPL EMENTARY FI GURES
HeLa and HeLa-APL -R cells.
autofluorescence AF (grey).
GFP at different concentrations identified in the phasor plot.
Supplementary Figure 3. FRET efficiency estimation from FRET “Dn” and FRET
of incubation with 10 nM plitidepsin- DMAC. Clusters of phasors corresponding to the […]

[3] = system: HeLa-APL-R cervical cancer cells (plitidepsin-resistant); set-up: method as in PMID 15365569; settings: 72 h, Fig. 1A, reported as previously described; cited from earlier work
[4] = system: p38, ERK and JNK phosphorylation in HeLa-APL-R cells expressing eEF1A2-GFP; assay: Signaling (Western blot) in HeLa-APL-R expressing eEF1A2-GFP; format: cell-based, human; settings: plitidepsin 450 nM
Experimental: (A) HeLa and HeLa-APL-R cells were stably transfected with an expression vector encoding for eEF1A2-GFP fusion protein. Clones homogeneously expressing the GFP were selected. The levels of expression of eEF1A2 were analyzed by Western blot using specific antibodies. The position of the endogenous and the GFP-fusion proteins are indicated. […] Levels of expression attained after transfection were similar to the endogenous levels. […] Concentration-response curves were performed at 72 h. Cell growth was determined by the MTT method and expressed as percentage of control cell survival.
as §1

[5] = system: three tumor cell lines selected for resistance to plitidepsin
Experimental: In all cases eEF1A2 protein levels were analyzed by Western Blot as shown in the right hand side of each graph. ● wild type cells, ○ APL-R cells.
HeLa cervix adenocarcinoma (ATCC CCL-2), K-562 chronic myelogenous leukemia (ATCC CCL-243), NCI-H460 lung cancer (ATCC HTB-177) and HGC27 gastric cancer (ATCC CRL-2506) cells were obtained from ATCC (Manassas, VA, USA) and cultured following standard procedures. Viability assays were performed utilizing 3-(4,5-dimethylthiazol-2-yl)-2,5-diphenyltetrazolium bromide (MTT) according to methods described elsewhere.

[6] = system: multiple myeloma cells; settings: cited from earlier work
Description: For example, it is known that eEF1A is able to directly increase the activity of sphingosine kinase-1 (SK1), an effect that is related to oncogenesis. […] The hijacking of eEF1A with the consequent reduction of SK1 activity has already been describe ...

[7] = system: CHRM1 (M1 muscarinic acetylcholine receptor); assay: PathHunter CHRM1 activation; format: cell-based; settings: data not shown
Description: (§2) For example, it is known that eEF1A is able to directly increase the activity of sphingosine kinase-1 (SK1), an effect that is related to oncogenesis. […] The hijacking of eEF1A with the consequent reduction of SK1 activity has already been described as a biological mechanism in dengue virus type-2 infected cells. Another example is the specific binding of eEF1A2 to the i3 loop of M4, but not M1, muscarinic acetylcholine receptor[40]. This direct interaction with M4 regulates its cell membrane density and activity. […] This is due to a specific interaction of eEF1A with aberrant polypeptides named defective ribosomal products (DRiPs) that are ligated to multi-ubiquitin chains following translation damage; eEF1A also plays a role in sensing DRiP accumulation when the proteasome is inhibited.

[8] = target: eEF1A2 purified from rabbit muscle (Oryctolagus cuniculus, UniProt Q71V39); settings: saturation binding, Swillens fit
Experimental: (A) Saturation binding curve. Protein and radioligand were incubated for 1 h at room temperature and samples were processed as described in the text. […] The experiment was performed as described in the text, and the experimental points were fitted to a single exponential decay equation by non-linear regression. […] Extracts were then digested with the indicated concentrations of subtilisin for 30 min at room temperature. Samples were resolved by SDS-PAGE and the degradation of eEF1A2 analyzed by Western blot; quantitation of the bands from the DARTS assay was performed with the ImageJ software.

[9] = system: CHRM4 (M4 muscarinic acetylcholine receptor); assay: PathHunter acetylcholine-mediated CHRM4 activation; format: cell-based; settings: CHO-transfected cell line, preliminary, data not shown
Description: as §2

[10] = system: eEF1A2; assay: GDP/GTP exchange in eEF1A2; format: biochemical; settings: with EF1B, data not shown
[11] = system: human leukemic cells; settings: cited from earlier work
Description: The high affinity of this interaction is in consonance with the nanomolar antiproliferative potency of this compound, also observed in many previous reports (for a review see ref. [10]).

[12] = system: sphingosine kinase-1 (SK1); assay: Sphingosine kinase-1 activity in tumor cells; format: cell-based; settings: preliminary, data not shown

eEF1A2 purified from rabbit muscle, sequence (Q71V39 whole entry): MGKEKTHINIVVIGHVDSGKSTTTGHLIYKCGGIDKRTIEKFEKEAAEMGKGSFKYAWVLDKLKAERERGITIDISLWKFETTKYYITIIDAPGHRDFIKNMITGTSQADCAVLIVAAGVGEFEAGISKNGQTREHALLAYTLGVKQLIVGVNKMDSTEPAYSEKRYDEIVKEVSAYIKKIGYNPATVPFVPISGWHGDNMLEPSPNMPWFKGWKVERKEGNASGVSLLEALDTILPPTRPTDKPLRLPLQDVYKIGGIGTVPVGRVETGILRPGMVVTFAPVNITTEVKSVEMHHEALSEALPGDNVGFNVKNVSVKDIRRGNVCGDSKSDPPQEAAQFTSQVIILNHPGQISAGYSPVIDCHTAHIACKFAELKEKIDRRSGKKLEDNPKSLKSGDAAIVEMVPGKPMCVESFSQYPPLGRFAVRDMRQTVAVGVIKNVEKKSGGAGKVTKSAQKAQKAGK

CC[C@H](C)[C@H]1NC(=O)[C@@H](NC(=O)[C@@H](CC(C)C)N(C)C(=O)[C@@H]2CCCN2C(=O)C(C)=O)[C@@H](C)OC(=O)[C@H](Cc2ccc(OC)cc2)N(C)C(=O)[C@@H]2CCCN2C(=O)[C@H](CC(C)C)NC(=O)[C@@H](C)C(=O)[C@H](C(C)C)OC(=O)C[C@@H]1O [plitidepsin, Plitidepsin] (Pyruvoyl-P[dNMeL]T[X1]LP[NMeY](Me); ester 3-C (inferred))
IC50 [1]: 1 nM
additional sensitization to the drug [2]: did not show any additional sensitization
IC50 [3]: > 100 nM
phosphorylation of p38, ERK and JNK [4]: led to phosphorylation of p38, ERK and JNK
fold resistance to plitidepsin versus parental cells [5]: at least 100 fold
combination effect with bortezomib ([6]; with bortezomib): synergistic
combination effect with lenalidomide ([6]; with lenalidomide): synergistic
combination effect with thalidomide ([6]; with thalidomide): synergistic
effect on CHRM1 [7]: did not affect CHRM1
Kd ([8]; [14C]-plitidepsin 0.1 to 4 μM, 100 nM rabbit eEF1A2, 1 μM Gpp(NH)p, pH 7.5, 5% DMSO, 1 h, room temperature, filtration, triplicate): 79 ± 30 nM
Bmax ([8]; [14C]-plitidepsin, 1 h, room temperature): 0.7 mol per mol of protein
alpha (ratio between non-specifically bound ligand and free ligand) ([8]; [14C]-plitidepsin): 0.014 ± 0.0005
decrease of acetylcholine-mediated CHRM4 activation [9]: 55%
effect on GDP/GTP exchange in eEF1A2 [10]: very modest
effect of cytochalasin B and jasplakinolide pretreatment on apoptotic response ([11]; 10 nM plitidepsin, actin-binding agents): prevented
effect of cycloheximide pretreatment on apoptotic response ([11]; 10 nM plitidepsin, cycloheximide at concentrations that inhibit protein synthesis): not to be affected
apoptotic response ([11]; human leukemic cells, 10 nM): fast and complete apoptotic response
SK1 activity in tumor cells [12]: decrease the activity of this enzyme in tumor cells
